Assay results taken from a compilation of properties of binary mixtures (doi:10.1016/j.molliq.2017.08.088).

Experiment: xn = mol fraction of the nth substance listed
Conditions: 101 kPa

CN(CCO)CCO + CCCC[n+]1ccn(C)c1.F[B-](F)(F)F
viscosity [mPa·s]
Conditions	x2 = 0.1002	x2 = 0.1974	x2 = 0.3	x2 = 0.4001	x2 = 0.4998	x2 = 0.6	x2 = 0.6997	x2 = 0.7998	x2 = 0.8999
293.15 K	89.3	82.9	78.9	75.2	73.6	74.2	79.1	87.9	–
303.15 K	49.9	46.2	–	42.4	42.4	43.8	47.5	53.1	–
313.15 K	30	28	26.4	26.1	26.4	27.7	30.4	34	41.2
323.15 K	18.9	–	17.2	17.2	17.7	–	20.6	23.3	27.8
333.15 K	12.75	–	11.84	12.03	12.44	13.35	14.8	–	19.8
